Results reported in patent US9968084B2, “Synergistic herbicidal composition containing penoxsulam, triclopyr and imazethapyr” (Dow AgroSciences LLC, priority 2011, dated 2018).

Key:
Test in all cases: Postemergence herbicidal activity of mixtures in the field (rice), visual weed control
Format in all cases: in vivo
Setaria spp. (SETSS) = settings: imazethapyr 70 g ai/ha
Experimental: (§1) Evaluation of Postemergence Herbicidal Activity of Mixtures in the Field
(§2) Field trials were conducted in rice using standard herbicide small plot research methodology. Plot size was 2×6 meter (m) with 4 replicates per treatment. The rice crop was grown using normal cultural practices for fertilization, seeding, watering, flooding and maintenance to ensure good growth of the crop and the weeds.
(§3) All treatments in the field trials were applied using a compressed air backpack sprayer calibrated to apply 187 liters per hectare (L/ha) spray volume. Commercially available products of the premix penoxsulam plus triclopyr (GraspXTRA® herbicide, trademark of Dow AgroSciences LLC) and imazethapyr or imazamox were mixed in water at appropriately formulated product rates to achieve the desired rates based on a unit area of application (hectare) to achieve the desired rates as shown. The GraspXTRA herbicide is a product that contains 0.25 lb penoxulam and 2.06 lb triclopyr triethylamine salt (1.5 lb acid equivalent) per gallon, so the weight ratio of the penoxulam to triclopyr acid equivalent is 1:6. Imazethapyr was used as Newpath 240 SL. imazamox was used as Beyond 120 SL. Treatments were rated at 15 to 63 days after application as compared to the untreated control plants. Visual weed control was scored on a scale of 0 to 100 percent where 0 corresponds to no injury and 100 corresponds to complete kill.
(§4) All treatment results, both for the single premix product, the single entity product and mixtures, are an average of 4 replicates and the tank mix interactions are significant at the […] level.
(§5) Colby's equation was used to determine the herbicidal effects expected from the mixtures (Colby, S. R. Calculation of the synergistic and antagonistic response of herbicide combinations. Weeds 1967, 15, 20-22.).
(§6) The following equation was used to calculate the expected activity of mixtures containing two active ingredients, A and B: Expected=A+B−(A×B/100)
(§7) A=observed efficacy of active ingredient A at the same concentration as used in the mixture.
(§8) B=observed efficacy of active ingredient B at the same concentration as used in the mixture.
(§9) All comparisons are an average of 4 replicates and are significant at the […] level. Rates of penoxsulam, triclopyr and imazethapyr or imazamox are expressed in grams active ingredient/hectare (g ai/ha).

[1] = test system: Echinochloa crus-galli (ECHCG)
Experimental: as §1, §2, §3, §4, §5, §6, §7, §8, §9

[2] = test system: Brachiaria platyphylla (GRISEB.) NASH (BRAPP); settings: imazamox 44 g ai/ha
Experimental: as §1, §2, §3, §4, §5, §6, §7, §8, §9

[3] = test system: Caperonia palustris ST.-HIL. (CNPPA); settings: imazamox 44 g ai/ha
Experimental: as §1, §2, §3, §4, §5, §6, §7, §8, §9

SMILES | % Control 15DAA SETSS Ob (Setaria spp. (SETSS); 15 DAA) | % Control 63DAA SETSS Ob (Setaria spp. (SETSS); 63 DAA) | % Control 15DAA ECHCG Ob ([1]; imazethapyr 70 g ai/ha, 15 DAA) | % Control 63DAA ECHCG Ob ([1]; imazethapyr 70 g ai/ha, 63 DAA) | % Control 41 DAA BRAPP Ob [2] | % Control 43 DAA CNPPA Ob [3] | % Control 43 DAA ECHCG Ob ([1]; imazamox 44 g ai/ha, 43 DAA)
CCc1cnc(C2=NC(C)(C(C)C)C(=O)N2)c(C(=O)O)c1 (stereo not shown) [Imazethapyr, 2-[4,5-dihydro-4-methyl-4-(1-methylethyl)-5-oxo-1H-imidazol-2-yl]-5-ethyl-3-pyridinecarboxylic acid] | 69% | 36% | 69% | 36% | – | – | –
COCc1cnc(C2=NC(C)(C(C)C)C(=O)N2)c(C(=O)O)c1 (stereo not shown) [Imazamox, 2-[4,5-dihydro-4-methyl-4-(1-methylethyl)-5-oxo-1H-imidazol-2-yl]-5-(methoxymethyl)-3-pyridinecarboxylic acid] | – | – | – | – | 61% | 0% | 78%
